Assay results from ChEMBL document CHEMBL1201862, “PubChem BioAssay data set” (2004).
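In this assay, cells in 96-well plates receive the compound at five concentrations for 48 hours. Endpoints are linearly interpolated between the surrounding concentrations. At the GI50, growth is halved.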 Calls of active or inactive are those of the source. Cut-off read from the data, not from the text of the source: active = GI50 up to about 1.1 µM and inactive = higher.

Legend:
Experiment in all cases: NCI-60 cell line screen, 48 h
A549 = system: A549
HCT-116 = system: HCT-116
HCT-15 = system: HCT-15
HL-60 = system: HL-60
Hs-578T = system: Hs-578T
MDA-MB-435 = system: MDA-MB-435
NCI-H23 = system: NCI-H23
NCI/ADR-RES = system: NCI/ADR-RES
SF-295 = system: SF-295
SF-539 = system: SF-539
SN12C = system: SN12C
SNB-19 = system: SNB-19
T47D = system: T47D
U-251 = system: U-251
KM12 = system: KM12
TK-10 = system: TK-10
UACC-62 = system: UACC-62

Row | SMILES | GI50 (A549) | GI50 (HCT-116) | GI50 (HCT-15) | GI50 (HL-60) | GI50 (Hs-578T) | GI50 (MDA-MB-435) | GI50 (NCI-H23) | GI50 (NCI/ADR-RES) | GI50 (SF-295) | GI50 (SF-539) | GI50 (SN12C) | GI50 (SNB-19) | GI50 (T47D) | GI50 (U-251) | GI50 (KM12) | GI50 (TK-10) | GI50 (UACC-62)
1 | Oc1cc(O)c2c(c1)O[C@H](c1cc(O)c(O)c(O)c1)[C@@H](O)C2 [GALLOCATECHIN] | 40.5 µM (inactive) | 17.9 µM (inactive) | 40 µM | 22.2 µM (inactive) | 46.6 µM (inactive) | 18.5 µM (inactive) | 23.5 µM (inactive) | 36.2 µM (inactive) | 24.4 µM (inactive) | 18 µM (inactive) | 18.3 µM (inactive) | > 100 µM (inactive) | 28.9 µM (inactive) | 19.7 µM (inactive) | – | – | –
2 | C1CNOCCCONCCCNOCCCONC1 | 91.8 µM (inactive) | > 100 µM (inactive) | > 100 µM | 51.8 µM (inactive) | 59.3 µM (inactive) | > 100 µM (inactive) | > 100 µM (inactive) | 95.3 µM (inactive) | 93.1 µM (inactive) | – | 77.4 µM (inactive) | 57.3 µM (inactive) | 11.3 µM (inactive) | 31.7 µM (inactive) | > 100 µM (inactive) | 31 µM (inactive) | > 100 µM (inactive)
3 | Cn1c(=O)c2ccccc2[n+]2c(-c3cccc([N+](=O)[O-])c3)csc12 | 91.4 µM (inactive) | 67.5 µM (inactive) | – | 23 µM (inactive) | 18.7 µM (inactive) | 63.7 µM (inactive) | > 100 µM (inactive) | 9.51 µM (inactive) | 44.8 µM (inactive) | 59.6 µM (inactive) | > 100 µM (inactive) | > 100 µM (inactive) | > 100 µM (inactive) | 32.6 µM (inactive) | 58.2 µM (inactive) | 36.4 µM (inactive) | 70.3 µM (inactive)
4 | Cc1ccc(OCC2OC(n3cnc4c(Cl)nc(Nc5cc(Cl)cc(Cl)c5)nc43)CC2Oc2ccc(C)cc2)cc1 (centres undefined) | > 100 µM (inactive) | > 100 µM (inactive) | > 100 µM | > 100 µM (inactive) | > 100 µM (inactive) | > 100 µM (inactive) | > 100 µM (inactive) | > 100 µM (inactive) | > 100 µM (inactive) | > 100 µM (inactive) | > 100 µM (inactive) | > 100 µM (inactive) | 48.9 µM (inactive) | > 100 µM (inactive) | > 100 µM (inactive) | – | > 100 µM (inactive)
5 | O=C1CNc2cc(N3CCN(c4ccccc4)CC3)ccc2N1 | > 100 µM (inactive) | > 100 µM (inactive) | > 100 µM | > 100 µM (inactive) | > 100 µM (inactive) | > 100 µM (inactive) | > 100 µM (inactive) | > 100 µM (inactive) | > 100 µM (inactive) | – | – | > 100 µM (inactive) | > 100 µM (inactive) | > 100 µM (inactive) | > 100 µM (inactive) | > 100 µM (inactive) | > 100 µM (inactive)
6 | CC(C)CCC[C@@H](C)[C@H]1CC[C@H]2[C@@H]3CC[C@H]4C[C@H](N)CC[C@]4(C)[C@H]3CC[C@]12C | 16.9 µM (inactive) | 30.1 µM (inactive) | 24.8 µM | 3.34 µM (inactive) | 20 µM (inactive) | 27.1 µM (inactive) | 26.1 µM (inactive) | 26.7 µM (inactive) | 19.3 µM (inactive) | – | 22.9 µM (inactive) | 15.6 µM (inactive) | 34.4 µM (inactive) | 13.8 µM (inactive) | 23.6 µM (inactive) | 16.6 µM (inactive) | 19.2 µM (inactive)
7 | COc1c2cc([N+](=O)[O-])cc1CNC(=O)CN1CCOCCOCCN(CCOCCOCC1)CC(=O)NC2 | > 100 µM (inactive) | > 100 µM (inactive) | > 100 µM | > 100 µM (inactive) | > 100 µM (inactive) | > 100 µM (inactive) | > 100 µM (inactive) | > 100 µM (inactive) | > 100 µM (inactive) | – | > 100 µM (inactive) | > 100 µM (inactive) | > 100 µM (inactive) | > 100 µM (inactive) | > 100 µM (inactive) | > 100 µM (inactive) | > 100 µM (inactive)
